Measured values as given in patent publication US4443436A, “C-20-Modified macrolide derivatives of the macrolide antibiotics tylosin, desmycosin, macrocin, and lactenocin” (Eli Lilly and Company, priority 1982, dated 1984).
≈ marks a conversion by molar mass, not a printed value. Where two headings read alike, the source gives them in different places.

Assays:
[1] = test system: Pasteurella multocida 17E; test: MIC, broth-dilution microtiter test, Pasteurella multocida 17E; format: cell-based
Text: (§1) The MIC's in Table X were obtained using conventional broth-dilution microtiter tests.

[2] = test system: Staphylococcus aureus V41; test: MIC, standard agar-dilution assay, Staphylococcus aureus V41; format: cell-based
[3] = test system: Haemophilus influenzae Holt; test: MIC, standard agar-dilution assay, Haemophilus influenzae Holt; format: cell-based; details: Haemophilus influenzae Holt, ampicillin-sensitive strain
[4] = test system: Staphylococcus aureus S13E; test: MIC, standard agar-dilution assay, Staphylococcus aureus S13E; format: cell-based
[5] = test system: Haemophilus influenzae R252; test: MIC, standard agar-dilution assay, Haemophilus influenzae R252; format: cell-based
[6] = test system: Streptococcus Group D X66; test: MIC, standard agar-dilution assay, Streptococcus Group D X66; format: cell-based; details: Streptococcus Group D X66, agar dilution
Mycoplasma hyopneumoniae = test: MIC, broth-dilution microtiter test, Mycoplasma hyopneumoniae; format: cell-based; details: Mycoplasma hyopneumoniae, broth-dilution microtiter
Text: as §1

Mycoplasma gallisepticum = test: MIC, broth-dilution microtiter test, Mycoplasma gallisepticum; format: cell-based; details: Mycoplasma gallisepticum, broth-dilution microtiter
Text: as §1

[7] = test system: Pasteurella hemolytica 22C; test: MIC, broth-dilution microtiter test, Pasteurella hemolytica 22C; format: cell-based
Text: as §1

Streptococcus bovis 80 = test: MIC, broth-dilution microtiter test, Streptococcus bovis 80; format: cell-based; details: Streptococcus bovis 80, broth-dilution microtiter
Text: as §1

[8] = test system: Streptococcus pyogenes C203; test: In vivo protection of mice experimentally infected with S. pyogenes C203; details: mice, doses given 1 and 4 hours post-infection; for ED50: Streptococcus pyogenes
Protocol: The C-20 modified derivatives of this invention have shown in vivo antimicrobial activity against experimentally-induced infections in laboratory animals. When two doses of test compound were administered to mice experimentally infected with S. pyogenes C203, the activity observed was measured as an ED50 value [effective dose in mg/kg to protect 50% of the test animals: see Warren Wick, et al., J. Bacteriol. 81, 233-235 (1961)].

Mycoplasma hyorhinis = test: MIC, broth-dilution microtiter test, Mycoplasma hyorhinis; format: cell-based; details: Mycoplasma hyorhinis, broth-dilution microtiter
Text: as §1

Staphylococcus aureus = test: MIC, broth-dilution microtiter test, Staphylococcus aureus; format: cell-based
Text: as §1

Streptococcus Group 9960 = test: MIC, standard agar-dilution assay, Streptococcus Group 9960; format: cell-based; details: Streptococcus Group 9960, agar dilution
[9] = test system: Staphylococcus epidermidis EPI1; test: MIC, standard agar-dilution assay, Staphylococcus epidermidis EPI1; format: cell-based
Mycoplasma synoviae = test: MIC, broth-dilution microtiter test, Mycoplasma synoviae; format: cell-based
Text: as §1

[10] = test system: Streptococcus pyogenes C203; test: MIC, standard agar-dilution assay, Streptococcus pyogenes C203; format: cell-based
[11] = test system: Pasteurella multocida 60A; test: MIC, broth-dilution microtiter test, Pasteurella multocida 60A; format: cell-based
Text: as §1

[12] = test system: Streptococcus pneumoniae Park I; test: microbe, parasite or virus in culture; format: cell-based
[13] = test system: Staphylococcus epidermidis EPI2; test: MIC, standard agar-dilution assay, Staphylococcus epidermidis EPI2; format: cell-based
[14] = test system: Staphylococcus aureus X1.1; test: MIC, standard agar-dilution assay, Staphylococcus aureus X1.1; format: cell-based
[15] = test system: Staphylococcus aureus X400; test: MIC, standard agar-dilution assay, Staphylococcus aureus X400; format: cell-based
[16] = Pasteurella multocida 17E, bovine isolate, broth-dilution microtiter
[17] = Staphylococcus aureus V41, penicillin-resistant strain, agar dilution
[18] = Staphylococcus aureus S13E, agar dilution
[19] = Haemophilus influenzae R252, ampicillin-resistant strain, agar dilution
[20] = Pasteurella hemolytica 22C, broth-dilution microtiter
[21] = Staphylococcus epidermidis EPI1, agar dilution
[22] = Mycoplasma synoviae, broth-dilution microtiter
[23] = Streptococcus pyogenes C203, agar dilution
[24] = Pasteurella multocida 60A, avian isolate, broth-dilution microtiter
[25] = Streptococcus pneumoniae Park I, agar dilution
[26] = Staphylococcus epidermidis EPI2, agar dilution
[27] = Staphylococcus aureus X1.1, agar dilution
[28] = Staphylococcus aureus X400, methicillin-resistant strain, agar dilution

CCC1OC(=O)CC(O)C(C)C(OC2OC(C)C(OC(C)=O)C(N(C)C)C2OC(C)=O)C(CCOc2ccccc2)CC(C)C(=O)C=CC(C)=CC1COC1OC(C)C(O)C(OC)C1OC (stereo not drawn) [Compound 68, 20-DH-20-O-Phenyl-2',4'-di-O-acetyldesmycosin]
MIC [1, 16]: 25 µg/mL (≈ 26.8 µM) | MIC [2, 17]: 0.5 µg/mL (≈ 0.535 µM) | MIC ([3]; agar dilution): 32 µg/mL (≈ 34.3 µM) | MIC [4, 18]: 0.5 µg/mL (≈ 0.535 µM) | MIC [5, 19]: 16 µg/mL (≈ 17.1 µM) | MIC [6]: 4 µg/mL (≈ 4.28 µM) | MIC (Mycoplasma hyopneumoniae): 12.5 µg/mL (≈ 13.4 µM) | MIC (Mycoplasma gallisepticum): 0.39 µg/mL (≈ 0.418 µM) | MIC [7, 20]: 25 µg/mL (≈ 26.8 µM) | MIC (Streptococcus bovis 80): 6.25 µg/mL (≈ 6.69 µM) | ED50, Oral ([8]; oral): 16 mg/kg × 2 | ED50, Subcutaneous ([8]; subcutaneous): 2.9 mg/kg × 2 | MIC (Mycoplasma hyorhinis): -- (Not active at 50 mcg/ml, the highest level tested) | MIC (Staphylococcus aureus; broth-dilution microtiter): 0.39 µg/mL (≈ 0.418 µM) | MIC (Streptococcus Group 9960): 8 µg/mL (≈ 8.56 µM) | MIC [9, 21]: 0.5 µg/mL (≈ 0.535 µM) | MIC (Mycoplasma synoviae; [22]): 3.12 µg/mL (≈ 3.34 µM) | MIC [10, 23]: 0.5 µg/mL (≈ 0.535 µM) | MIC [11, 24]: 25 µg/mL (≈ 26.8 µM) | MIC [12, 25]: 0.5 µg/mL (≈ 0.535 µM) | MIC [13, 26]: 0.12 µg/mL (≈ 0.128 µM) | MIC [14, 27]: 0.5 µg/mL (≈ 0.535 µM) | MIC [15, 28]: 0.5 µg/mL (≈ 0.535 µM)

CCC1OC(=O)CC(O)C(C)C(OC2OC(C)C(O)C(N(C)C)C2O)C(CCOC(C(F)(F)F)C(F)(F)F)CC(C)C(=O)C=CC(C)=CC1COC1OC(C)C(O)C(OC)C1OC (stereo not drawn) [Compound 32, 20-DH-20-O-[2,2,2-trifluoro-1-(trifluoromethyl)ethyl]desmycosin]
MIC ([1]; Pasteurella multocida, 17E): 50 µg/mL (≈ 54.1 µM) | MIC ([2]; Staphylococcus aureus, V41): 0.5 µg/mL (≈ 0.541 µM) | MIC ([3]; read-out: MIC): 64 µg/mL (≈ 69.3 µM) | MIC ([4]; Staphylococcus aureus, S13E): 0.5 µg/mL (≈ 0.541 µM) | MIC ([5]; Haemophilus influenzae, R252): 128 µg/mL (≈ 139 µM) | MIC ([6]; read-out: MIC): 32 µg/mL (≈ 34.6 µM) | MIC (Mycoplasma hyopneumoniae; Mesomycoplasma hyopneumoniae, read-out: MIC): > 25 µg/mL | MIC (Mycoplasma gallisepticum; Mycoplasmoides gallisepticum, read-out: MIC): 0.19 µg/mL (≈ 0.206 µM) | MIC ([7]; Pasteurella, 22C): 50 µg/mL (≈ 54.1 µM) | MIC (Streptococcus bovis 80; Streptococcus equinus, read-out: MIC): 12.5 µg/mL (≈ 13.5 µM) | ED50 ([8]; C203, sc, subcutaneous, read-out: ED50, Subcutaneous): > 10 mg/kg | ED50 ([8]; C203, oral, read-out: ED50, Oral): 25 mg/kg | MIC (Mycoplasma hyorhinis; read-out: MIC): > 50 µg/mL | MIC (Staphylococcus aureus): 0.78 µg/mL (≈ 0.844 µM) | MIC (Streptococcus Group 9960; GROUP9960, read-out: MIC): 32 µg/mL (≈ 34.6 µM) | MIC ([9]; Staphylococcus epidermidis, EPI1): 0.5 µg/mL (≈ 0.541 µM) | MIC (Mycoplasma synoviae; Mycoplasmopsis synoviae): 1.56 µg/mL (≈ 1.69 µM) | MIC ([10]; Streptococcus pyogenes, C203): 0.5 µg/mL (≈ 0.541 µM) | MIC ([11]; Pasteurella multocida, 60A): 50 µg/mL (≈ 54.1 µM) | MIC ([12]; Streptococcus pneumoniae): 4 µg/mL (≈ 4.33 µM) | MIC ([13]; Staphylococcus epidermidis, EPI2): 0.25 µg/mL (≈ 0.271 µM) | MIC ([14]; Staphylococcus aureus, X1.1): 0.5 µg/mL (≈ 0.541 µM) | MIC ([15]; Staphylococcus aureus, X400): 0.5 µg/mL (≈ 0.541 µM)

CCC1OC(=O)CC(O)C(C)C(OC2OC(C)C(O)C(N(C)C)C2O)C(CCOc2cccc(Oc3ccccc3)c2)CC(C)C(=O)C=CC(C)=CC1COC1OC(C)C(O)C(OC)C1OC (stereo not drawn) [Compound 48, 20-DH-20-O-(m-Phenoxyphenyl)desmycosin]
MIC [1, 16]: 25 µg/mL (≈ 26.5 µM) | MIC [2, 17]: 0.5 µg/mL (≈ 0.531 µM) | MIC ([3]; agar dilution): 16 µg/mL (≈ 17 µM) | MIC [4, 18]: 0.5 µg/mL (≈ 0.531 µM) | MIC [5, 19]: 16 µg/mL (≈ 17 µM) | MIC [6]: 0.5 µg/mL (≈ 0.531 µM) | MIC (Mycoplasma hyopneumoniae): 1.56 µg/mL (≈ 1.66 µM) | MIC (Mycoplasma gallisepticum): < 0.05 µg/mL | MIC [7, 20]: 25 µg/mL (≈ 26.5 µM) | MIC (Streptococcus bovis 80): 0.09 µg/mL (≈ 0.0955 µM) | ED50, Oral ([8]; oral): 35 mg/kg × 2 | ED50, Subcutaneous ([8]; subcutaneous): > 10 mg/kg × 2 | MIC (Mycoplasma hyorhinis): 12.5 µg/mL (≈ 13.3 µM) | MIC (Staphylococcus aureus; broth-dilution microtiter): 0.78 µg/mL (≈ 0.828 µM) | MIC (Streptococcus Group 9960): 1 µg/mL (≈ 1.06 µM) | MIC [9, 21]: 0.5 µg/mL (≈ 0.531 µM) | MIC (Mycoplasma synoviae; [22]): 0.19 µg/mL (≈ 0.202 µM) | MIC [10, 23]: 0.25 µg/mL (≈ 0.265 µM) | MIC [11, 24]: 25 µg/mL (≈ 26.5 µM) | MIC [12, 25]: 0.25 µg/mL (≈ 0.265 µM) | MIC [13, 26]: 0.25 µg/mL (≈ 0.265 µM) | MIC [14, 27]: 0.5 µg/mL (≈ 0.531 µM) | MIC [15, 28]: 0.5 µg/mL (≈ 0.531 µM)
